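Compound exposure: 48 hours, 5 concentrations, 96-well plates. TGI marks complete inhibition of growth.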
Columns and labels:
Test in all cases: inhibition of tumour cell growth, NCI panel, 48 h
EKVX NSCLC = system: EKVX NSCLC
HS 578T breast = system: HS 578T breast
NCI-H23 lung = system: NCI-H23 lung
DU-145 prostate = system: DU-145 prostate
MDA-MB-435 = system: MDA-MB-435
SK-OV-3 ovarian = system: SK-OV-3 ovarian
OVCAR-4 ovarian = system: OVCAR-4 ovarian
MDA-MB-231 breast = system: MDA-MB-231 breast
T-47D breast = system: T-47D breast
MDA-N = system: MDA-N
UACC-62 melanoma = system: UACC-62 melanoma
786-0 renal = system: 786-0 renal
NCI-H226 lung = system: NCI-H226 lung
KM12 colon = system: KM12 colon
K-562 leukemia = system: K-562 leukemia
HCT-116 colon = system: HCT-116 colon
M14 melanoma = system: M14 melanoma
HOP-62 NSCLC = system: HOP-62 NSCLC
NCI-H522 lung = system: NCI-H522 lung
SK-MEL-28 melanoma = system: SK-MEL-28 melanoma

Structure (SMILES) | TGI (EKVX NSCLC) [µM] | TGI (HS 578T breast) [µM] | TGI (NCI-H23 lung) [µM] | TGI (DU-145 prostate) [µM] | TGI (MDA-MB-435) [µM] | TGI (SK-OV-3 ovarian) [µM] | TGI (OVCAR-4 ovarian) [µM] | TGI (MDA-MB-231 breast) [µM] | TGI (T-47D breast) [µM] | TGI (MDA-N) [µM] | TGI (UACC-62 melanoma) [µM] | TGI (786-0 renal) [µM] | TGI (NCI-H226 lung) [µM] | TGI (KM12 colon) [µM] | TGI (K-562 leukemia) [µM] | TGI (HCT-116 colon) [µM] | TGI (M14 melanoma) [µM] | TGI (HOP-62 NSCLC) [µM] | TGI (NCI-H522 lung) [µM] | TGI (SK-MEL-28 melanoma) [µM]
CN(C)CCc1ccnc2nc(-c3ccc4ccccc4c3)cn12 | > 100 | 52.8 | 46.2 | > 100 | > 100 | > 100 | > 100 | > 100 | > 100 | > 100 | > 100 | 63.2 | > 100 | 44.3 | > 100 | > 100 | > 100 | > 100 | 24.8 | > 100
CCCC(=O)OCC1OC(n2cc(F)c(=O)[nH]c2=O)C(F)C1OC(=O)CCC (stereo not given) | > 100 | > 100 | > 100 | > 100 | > 100 | > 100 | > 100 | > 100 | > 100 | > 100 | > 100 | > 100 | > 100 | > 100 | > 100 | > 100 | > 100 | > 100 | > 100 | > 100
CC1(C)CCC[C@@]2(C)C1C(=O)[C@@H]1O[C@]1(C)[C@@H]2CO (stereo not given in full) | > 100 | > 100 | 67.9 | > 100 | > 100 | > 100 | > 100 | > 100 | > 100 | > 100 | > 100 | > 100 | > 100 | > 100 | > 100 | > 100 | > 100 | > 100 | 93.1 | 80.9
Cn1c2ccccc2n2c3ccccc3c(=O)c(C#N)c12 | > 100 | 66.7 | > 59.8 | 65.8 | > 100 | > 100 | > 100 | 41.9 | > 95.6 | > 100 | > 58.3 | > 59.9 | 34.1 | > 100 | > 100 | 33.9 | > 100 | > 100 | 58.1 | > 100
COc1cc2c(c(OC)c1OC)C(=O)[C@H](Br)[C@H]2NC(=O)NCCCl | > 100 | > 100 | > 100 | > 100 | > 100 | > 100 | > 100 | > 100 | > 100 | > 100 | > 100 | > 100 | > 100 | > 100 | > 100 | > 100 | > 100 | > 100 | > 100 | > 100
O=S(=O)(O)c1cc(N=Nc2cc(S(=O)(=O)O)c3cccnc3c2O)ccc1/C=C/c1ccc(N=Nc2cc(S(=O)(=O)O)c3cccnc3c2O)cc1S(=O)(=O)O | > 100 | > 100 | > 100 | > 100 | > 100 | > 100 | > 100 | > 100 | > 100 | > 100 | > 100 | > 100 | > 100 | > 100 | > 89.8 | > 100 | > 100 | > 100 | > 100 | > 100
COC(=O)c1ccccc1C1CN=NC12Cc1cc(C)c(C)cc1C2=O (stereo not given) | > 100 | > 100 | > 100 | > 100 | > 100 | > 100 | > 100 | > 100 | > 100 | > 100 | > 100 | > 100 | > 100 | > 100 | > 100 | > 100 | > 100 | > 100 | 67.3 | > 100
COc1ccc(NS(=O)c2ccccc2OC)cc1 (stereo not given) | > 100 | 84.5 | > 100 | > 100 | > 100 |  | > 100 | > 100 | 35.2 | > 100 | 20.5 | > 100 | 41.8 | 18.1 | > 100 | > 100 | > 100 | > 100 | 52.5 | > 100
Nc1nc(NCC2(CO)CCC2)cc(=O)[nH]1 | > 100 | > 100 | > 100 | > 100 | > 100 | > 100 | > 100 | > 100 | > 100 | > 100 | > 100 | > 100 | > 100 | > 100 | > 100 | > 100 | > 100 | > 100 | > 100 | > 100
O=c1oc2ccccc2c(O)c1C(c1ccc2c(c1)Cc1ccccc1-2)c1c(O)c2ccccc2oc1=O | > 100 | 86.3 | 69.5 | > 100 | 77.4 | 90.8 | > 100 | 57.9 | > 100 | 36.7 | 49.8 | 66.9 | > 100 | 49.1 |  | > 100 | 41 | > 100 | 49.2 | 57.6
CCSC1=N/C(=C/c2ccccc2O)C(=O)N1 | > 100 | > 100 | > 100 | > 100 | > 100 | > 100 |  | > 100 | > 100 | > 100 | > 100 | > 100 | > 100 | > 100 | > 100 | > 100 | > 100 | > 100 | > 100 | > 100
COc1cccc(NC(=O)CC(=O)N2N=C(C)C(N=Nc3ccc(S(=O)(=O)CCOS(=O)(=O)O)cc3)C2=O)c1 (stereo not given) | 31.9 | 88 | 20.9 | 29.6 | 10.4 |  | 62.5 | 25.6 | 24.2 | 14 |  | 9.07 | 27.1 | 36 | > 100 | 13 | 20.2 | 26 | 2.48 | 16.9

— PubChem BioAssay (NCI)
